Values of other authors, collected in patent publication US20030049260A1, “Method of improving cognitive function” (priority 2001, published 2003).

Conditions: for Change in Symbol Digit: max. increase: duration 12 weeks, An J Geriatr Psychiatry 1999;7:221-227

CN[C@@H](C)Cc1ccccc1 [Methamphetamine]
Change in Symbol Digit: reduction in drug group as compared to a control group (in vivo): Significant 14%

CN[C@H]1CC[C@@H](c2ccc(Cl)c(Cl)c2)c2ccccc21 [Sertraline]
Change in Symbol Digit: max. increase: 21% increase

Cc1nnc2n1-c1ccc(Cl)cc1C(c1ccccc1Cl)=NC2 [Triazolam]
Change in Symbol Digit: reduction (in vivo): 10-20% reduction

CNC1(c2ccccc2Cl)CCCCC1=O (stereo not drawn) [Ketamine]
Change in Symbol Digit: decline (in vivo): 5-10% decline

CNCCC(Oc1ccc(C(F)(F)F)cc1)c1ccccc1 (stereo not drawn) [Fluoxetine]
Change in Symbol Digit: max. increase: 10% increase

CC(C)NCC(O)COc1cccc2ccccc12 (stereo not drawn) [Propranolol]
Change in Symbol Digit: decline as compared to placebo (duration 8 hours, Br. J. Clin Pharmac 1984;17:31-36): 10-15% decline
